Assay results from patent US4751215A, “Process for increasing the sexual activity of birds and useful domestic mammals and for preparing spermatozoa suitable to their propagation” (INNOFINANCE Altalanos Innovacios Penzintezet, priority 1985, dated 1988).

Legend:
Type in all cases: in vivo
ganders [1] = assay: Sperm production and sperm quality of ganders kept under natural conditions (Table 7)
Method: "Hungarian" and "Landes" ganders kept under natural conditions and divided to small groups were treated with 0.5 μg/kg of D-Phe^6,desGly^10 -GnRH ethylamide analogue every 2 days, altogether 3 times.

ganders [2] = assay: Copulation activity / libido of ganders (Table 6); details: for No. of daily copulations: Treated (n = 10)
Method: (§1) Ganders kept under large-scale conditions and propagated in a natural way were treated with 0.5 μg/kg of D-Phe^6,desGly^10 -GnRH ethylamide analogue every 2 days, altogether 3 times. […] This manifested itself in the rise of the copulation activity (Table 6).

male angora rabbits = assay: Enhancement of the sperm production of male rabbits; details: 3 μg every 2 days, 3 times
Method: In this experiment male angora rabbits showing a low libido were used from which no sperm could be obtained. The motility of the cells in their sperm was lower than 75%; thus, these animals could not be used for propagating. Of these animals 234 were treated with 3 μg of D-Phe^6,desGly^10 -GnRH ethylamide analogue every 2 days, altogether 3 times. […] These effects could be observed for several weeks; thus, the amount of the sperm usable for artificial insemination increased to its 2.5-fold value.

[3] = system: blood plasma testosterone level; assay: Blood plasma testosterone level of ganders (Table 6); details: for Testosterone: Treated (n = 10)
Method: as §1

male turkeys = assay: Effect of gonadoliberin analogues on the sperm production of male turkeys (Table 5)
Description: In a further experiment, the sperm production of male turkeys was raised by administering the following four compounds: […]

[4] = "Hungarian" ganders, sampling February 7
[5] = "Hungarian" ganders, sampling February 14
[6] = "Hungarian" ganders, sampling February 21
[7] = "Hungarian" ganders, sampling February 28
[8] = "Hungarian" ganders, sampling January 15 (before treatment)
[9] = "Hungarian" ganders, sampling January 31
[10] = "Hungarian" ganders, sampling March 7
[11] = "Hungarian" ganders, sampling March 12
[12] = "Landes" ganders, sampling February 7
[13] = "Landes" ganders, sampling February 14
[14] = "Landes" ganders, sampling February 21
[15] = "Landes" ganders, sampling February 28
[16] = "Landes" ganders, sampling January 15 (before treatment)
[17] = "Landes" ganders, sampling January 31
[18] = "Landes" ganders, sampling March 7
[19] = "Landes" ganders, sampling March 12
[20] = 0.5 μg/kg every 2 days, 3 times
[21] = at the beginning of the experiment

CCNC(=O)[C@@H]1CCCN1C(=O)[C@H](CCCNC(=N)N)NC(=O)[C@H](CC(C)C)NC(=O)[C@@H](Cc1ccccc1)NC(=O)[C@H](Cc1ccc(O)cc1)NC(=O)[C@H](CO)NC(=O)[C@H](Cc1c[nH]c2ccccc12)NC(=O)[C@H](Cc1c[nH]cn1)NC(=O)[C@@H]1CCC(=O)N1 [Compound "C", D-Phe^6,desGly^10 -GnRH ethylamide]
duration of the sperm production increase (ganders [1]; 0.5 μg/kg every 2 days, 3 times, "Hungarian" and "Landes" ganders): lasting for about one month and a half | Sperm (ganders [1]; "Hungarian" ganders, 0.5 μg/kg on January 28, 30, February 1, sampling January 15 (before treatment)): 0.19 mL | Motility of the spermatozoa (ganders [1]; [4]): good | No. of spermatozoa (ganders [1]; [4]): 3.2 10^6 /mm^3 | Ratio of dead + deficient cells (ganders [1]; [4]): 8% | Sperm (ganders [1]; [4]): 0.48 mL | Motility of the spermatozoa (ganders [1]; [5]): good | No. of spermatozoa (ganders [1]; [5]): 3.0 10^6 /mm^3 | Ratio of dead + deficient cells (ganders [1]; [5]): 10% | Sperm (ganders [1]; [5]): 0.56 mL | Motility of the spermatozoa (ganders [1]; [6]): good | No. of spermatozoa (ganders [1]; [6]): 2.9 10^6 /mm^3 | Ratio of dead + deficient cells (ganders [1]; [6]): 12% | Sperm (ganders [1]; [6]): 0.30 mL | Motility of the spermatozoa (ganders [1]; [7]): good | No. of spermatozoa (ganders [1]; [7]): 2.9 10^6 /mm^3 | Ratio of dead + deficient cells (ganders [1]; [7]): 14% | Sperm (ganders [1]; [7]): 0.23 mL | Motility of the spermatozoa (ganders [1]; [8]): weak | No. of spermatozoa (ganders [1]; [8]): 2.1 10^6 /mm^3 | Ratio of dead + deficient cells (ganders [1]; [8]): 19% | Motility of the spermatozoa (ganders [1]; [9]): weak | No. of spermatozoa (ganders [1]; [9]): 2.3 10^6 /mm^3 | Ratio of dead + deficient cells (ganders [1]; [9]): 20% | Sperm (ganders [1]; [9]): 0.25 mL | Motility of the spermatozoa (ganders [1]; [10]): good | No. of spermatozoa (ganders [1]; [10]): 3.1 10^6 /mm^3 | Ratio of dead + deficient cells (ganders [1]; [10]): 17% | Sperm (ganders [1]; [10]): 0.44 mL | Motility of the spermatozoa (ganders [1]; [11]): good | No. of spermatozoa (ganders [1]; [11]): 3.0 10^6 /mm^3 | Ratio of dead + deficient cells (ganders [1]; [11]): 14% | Sperm (ganders [1]; [11]): 0.33 mL | Sperm (ganders [1]; "Landes" ganders, 0.5 μg/kg on January 28, 30, February 1, sampling January 15 (before treatment)): 0.19 mL | Motility of the spermatozoa (ganders [1]; [12]): medium | No. of spermatozoa (ganders [1]; [12]): 2.2 10^6 /mm^3 | Ratio of dead + deficient cells (ganders [1]; [12]): 19% | Sperm (ganders [1]; [12]): 0.32 mL | Motility of the spermatozoa (ganders [1]; [13]): good | No. of spermatozoa (ganders [1]; [13]): 2.0 10^6 /mm^3 | Ratio of dead + deficient cells (ganders [1]; [13]): 16% | Sperm (ganders [1]; [13]): 0.45 mL | Motility of the spermatozoa (ganders [1]; [14]): medium | No. of spermatozoa (ganders [1]; [14]): 2.0 10^6 /mm^3 | Ratio of dead + deficient cells (ganders [1]; [14]): 19% | Sperm (ganders [1]; [14]): 0.38 mL | Motility of the spermatozoa (ganders [1]; [15]): medium | No. of spermatozoa (ganders [1]; [15]): 2.2 10^6 /mm^3 | Ratio of dead + deficient cells (ganders [1]; [15]): 17% | Sperm (ganders [1]; [15]): 0.35 mL | Motility of the spermatozoa (ganders [1]; [16]): weak | No. of spermatozoa (ganders [1]; [16]): 1.9 10^6 /mm^3 | Ratio of dead + deficient cells (ganders [1]; [16]): 23% | Motility of the spermatozoa (ganders [1]; [17]): medium | No. of spermatozoa (ganders [1]; [17]): 2.0 10^6 /mm^3 | Ratio of dead + deficient cells (ganders [1]; [17]): 23% | Sperm (ganders [1]; [17]): 0.43 mL | Motility of the spermatozoa (ganders [1]; [18]): good | No. of spermatozoa (ganders [1]; [18]): 1.9 10^6 /mm^3 | Ratio of dead + deficient cells (ganders [1]; [18]): 20% | Sperm (ganders [1]; [18]): 0.18 mL | Motility of the spermatozoa (ganders [1]; [19]): medium | No. of spermatozoa (ganders [1]; [19]): 1.8 10^6 /mm^3 | Ratio of dead + deficient cells (ganders [1]; [19]): 19% | Sperm (ganders [1]; [19]): 0.20 mL | libido of the animals (ganders [2]; [20]): significantly raised | duration of the high copulation activity (ganders [2]; 0.5 μg/kg, ganders): maintained at this high level for one additional month | No. of daily copulations (ganders [2]; October 1): 10 | No. of daily copulations (ganders [2]; September 3): 9 | No. of daily copulations (ganders [2]; September 10): 7 | No. of daily copulations (ganders [2]; September 17): 12 | No. of daily copulations (ganders [2]; September 24): 13 | increase of the amount of sperm usable for artificial insemination (male angora rabbits): 2.5 fold | motility of spermatozoa in excess of the mean value (76%) of sperm from good males (male angora rabbits; in average, within 4 weeks after the treatment): 10% | libido of the animals (male angora rabbits; low-libido male angora rabbits, within 4 weeks after the treatment): significantly increased | sperm production relative to the average of sperm obtained from good males useful for breeding (male angora rabbits; weighed in ml, within 4 weeks after the treatment): 80% | blood plasma testosterone level (in words) [3, 20]: significantly raised | Testosterone ([3]; sampling October 1): 390 ± 78 pg/mL | Testosterone ([3]; sampling September 3): 378 ± 142 pg/mL | Testosterone ([3]; sampling September 10): 470 ± 133 pg/mL | Testosterone ([3]; sampling September 17): 879 ± 145 pg/mL | Testosterone ([3]; sampling September 24): 695 ± 125 pg/mL | Sperm production (male turkeys; after 30 days): 0.30 ml/animal | Sperm production (male turkeys; after 60 days): 0.32 ml/animal | Sperm production (male turkeys; after 90 days): 0.34 ml/animal | Sperm production (male turkeys; after 120 days): 0.30 ml/animal | Sperm production (male turkeys; [21]): 0.21 ml/animal

(Asp-α-anilide)^6,desGly^10 -GnRH [Compound "B"]
Sperm production (male turkeys; after 30 days): 0.21 ml/animal | Sperm production (male turkeys; after 60 days): 0.28 ml/animal | Sperm production (male turkeys; [21]): 0.18 ml/animal
